Experimental data published in US20030091533A1, “Regulation of mononuclear phagocyte stimulation” (priority 2001, published 2003).

Assays:
ERK½ = ERK½ MAP kinase phosphorylation immunoblot in PBM; type: cell-based, human; settings: pretreatment before LPS 1 μg/ml; IL-9 20 ng/ml 24 hour; PD98059 1 hour
Method: PBM, isolated as described infra, were treated with 100 !M PD98059 (or with the same volume of DMSO as control) 1 hour before preincubation for 24 hour with medium or IL-9 (20 ng/ml). For the phosphoERK immunoblot assay (A), PBM were then stimulated by LPS (1 μg/ml) for the indicated periods of time (5 min to 20 hours) as compared to unstimulated cells (med), and processed for the detection of phosphorylated and total ERK½ as described in infra. For the oxidative burst (B), PBM were stimulated by LPS (1 μg/ml) for 20 hour and their oxidative capacity was evaluated through DCFH oxidation The results are presented in FIG. 7.
PBM were preincubated for 24 hour with medium alone (med) or IL-9, IL-4 or TGF-β1 (20 ng/ml), and stimulated by LPS (1 μg/ml) for the indicated periods of time (30 to 240 min). […]
PBM (1×10^6) were preincubated for 24 hour with medium alone or with cytokines (IL-9, IL-4 or TGF-β1 at 20 ng/ml) and stimulated from 5 min to 20 hour by 1 μg/ml LPS. […] Cell extracts (10 μg, as determined by the bicinchoninic acid-based assay) were subjected to SDS-12%PAGE, and electrotransferred onto a nitrocellulose membrane (Amersham) immunoblotted to detect and compare phosphorylated (threonine^202/tyrosine^204 residues) and total ERK½, using specific antibodies and enhanced chemiluminescence (New England Biolabs). […]

LPS-stimulated AM = assay: IL-10 release by ELISA, AM; type: cell-based, human; settings: preincubated 24 hour, LPS 20 h
Method: FIG. 6 depicts the effect of IL-9, IL-4 and IFN-γ on the release of IL-10 (A) and TGF-β1 (B) by LPS-stimulated PBM and AM cultured under the same conditions as described in FIG. 5 Example I. D. TGF-β1 was determined by ELISA in crude supernatants (untreated supernatants) and in ethanol-acid (acid-treated) supernatants, using a kit from Biosource for determining TGF-β1 release from its latent complexes. An ELISA kit from CLB (Amsterdam, The Netherlands) was used to determine IL-10 following the manufacturer's protocol. […] Data are means±SEM (n=3). *P<0.05 compared with unstimulated cells; **P<0.05 compared with cells preincubated with medium.
Cells (1×10^6 PBM or 0.5×10^6 AM/well) were distributed in 24-well plates (Falcon), preincubated in cRPMI for 24 hours at 37° C., 5% CO2 with cytokines (IL-9, IL-4 (20 ng/ml) and IFN-γ (200 U/ml)) and stimulated for 20 hours with 1 μg/ml LPS without removing cytokines. […] Release of TNF-α was quantified by a cytotoxicity bioassay using WEHI 164 cells clone 13, as previously described (Espevik and Nissen-Meyer, J. Immunol. Methods, 95:99-105 (1986) incorporated herein by reference), using rhTNF-α from Boehringer as a standard. IL-8, IL-10 and TGF-β1 concentrations were determined by ELISA. A kit from CLB (Amsterdam, The Netherlands) was used for IL-10 quantitation, following the manufacturer's protocol. […]

Molecule | LPS-induced ERK½ phosphorylation in PBM (ERK½) | IL-10 release by LPS-stimulated AM (LPS-stimulated AM)
IL-9: Human IL-9 purified from SF9 insect cell cultures infected with recombinant baculovirus | strongly down regulates | 
IFN-γ: Interferon gamma, primes mononuclear phagocytes, 200 U/ml (protein, UniProt P01579 24-161, looked up) Interferon gamma: QDPYVKEAENLKKYFNAGHSDVADNGTLFLGILKNWKEESDRKIMQSQIVSFYFKLFKNFKDDQSIQKSVETIKEDMNVKFFNSNKKKRDDFEKLTNYSVTDLNVQRKAIHELIQVMAELSPAAKTGKRKRSQMLFRG |  | decreased
